Legend:
[1] = tested on: THP1-Dual human monocyte cell line; assay: Interferon response of cGAMP-activated THP1-Dual cells, luciferase; conditions: inhibitor 1 h before cGAMP 3 μg/ml, 24 h, luciferase (FIG. 22B, 23B)
[2] = tested on: peripheral blood mononuclear cells (PBMCs) of healthy donors; assay: Secretion of inflammatory cytokines and interferons by PBMCs after TLR7/8 (R848) stimulation, LegendPlex; conditions: human PBMCs incubated with inhibitor before R848 stimulation
activated immune cells = assay: Secretion of inflammatory cytokines and interferons by activated immune cells placed in contact with ROCK inhibitor; assay type: cell-based; conditions: compared with activated immune cells not placed in contact with the inhibitor
[3] = tested on: peripheral blood mononuclear cells (PBMCs); assay: Interferon production by cGAMP-activated PBMCs, STING-37 reporter cell line; conditions: inhibitor 1 h before cGAMP 3 μg/ml, 24 h, STING-37 reporter (FIG. 22A, 23A)
[4] = tested on: monocytes of healthy donors; assay: Intracellular TNFα production in monocytes after TLR7/8 (Resiquimod-R848) stimulation, flow cytometry; assay type: cell-based, human; conditions: inhibitor 1 h before R848 (TLR7/8), 16 h, flow cytometry (FIG. 1, 2)
Description: (§1) The cells were rinsed in PBS then incubated with a viability dye (Zombie Aqua, Biolegend) for 30 min at ambient temperature. After washing, the cells were resuspended in PBS containing 2% SVF and 2 mM EDTA then labelled with the APC Vio770 anti-CD14 (clone REA599) antibody from Miltenyi Biotec, used at 1/100°. […] Data acquisition was carried out on the Canto 11 flow cytometer using the Diva software (BD Biosciences, San Jose, Calif.). The Kaluza software was used to analyze the data.

[5] = tested on: immune cells (PBMCs and purified monocytes) of healthy donors; assay: Production of inflammatory cytokines by PBMCs and purified monocytes after TLR2/4 stimulation by bacterial agents; assay type: cell-based, human; conditions: TLR 2/4 stimulation by lipoteichoic acid/LPS
[6] = tested on: peripheral blood mononuclear cells (PBMCs); assay: Cell toxicity on PBMCs, ATP quantification with CellTiter Glo; assay type: cell-based, human; conditions: cGAMP 24 h
[7] = tested on: monocytes of healthy donors; assay: TNFα, IL-1β and IL-6 production and viability of R848-activated purified monocytes, flow cytometry; assay type: cell-based, human
Description: (§2) The monocytes, T lymphocytes and B lymphocytes were cultured at 1·10^6/ml. […] The T lymphocytes were stimulated for 3 days with beads from the “Dynabeads human T activator CD3/CD28” kit from Thermo Fisher Scientific, following their instructions. […] The B lymphocytes were stimulated for 24 h with CpG-A t 1 μg/ml. […] The cells were rinsed in PBS then incubated with a viability dye (Zombie Aqua, Biolegend) for 30 min at ambient temperature. After washing, the cells were resuspended in PBS containing 2% SVF and 2 mM EDTA. For the monocytes, an intracellular labelling of TNFα, IL-6 and IL-1β, with the “Inside Stain” kit (Miltenyi Biotec) was used following the manufacturer's protocol. […] Data acquisition was carried out on the Attune N×T flow cytometer from Thermo Fisher. The FlowJo software was used to analyze the data. For the T lymphocytes, the cells were suspended in PBS containing 2% SVF and 2 mM EDTA then labelled with the PE anti-CD69 and APC anti-CD3 antibody from Miltenyi Biotec, used at 1/100°. After incubation for 30 min, the cells were rinsed in PBS containing 2% SVF and 2 mM EDTA. Data acquisition was carried out on the Attune N×T flow cytometer from Thermo Fisher. The FlowJo software was used to analyze the data. […]

[8] = tested on: neurones infected by the prions; assay type: cell-based
[9] = tested on: THP1-Dual human monocyte cell line; assay: Cell toxicity on THP1-Dual, ATP quantification with CellTiter Glo; assay type: cell-based; conditions: cGAMP 24 h
[10] = tested on: NF-κB transcription factor; assay: NF-κB transcription factor activity, supernatants of R848-stimulated PBMCs on THP1-Dual reporter line; assay type: cell-based; conditions: human PBMCs, inhibitor 1 h before R848, 24 h, QUANTI-Blue (FIG. 17B)
Description: The monocytes, T lymphocytes and B lymphocytes were cultured at 1·10^6/ml. […] The T lymphocytes were stimulated for 3 days with beads from the “Dynabeads human T activator CD3/CD28” kit from Thermo Fisher Scientific, following their instructions. […] The B lymphocytes were stimulated for 24 h with CpG-A t 1 μg/ml. […] The activity of the NF-κB transcription factor was measured by means of the THP1-Dual reporter cell line from Invivogen. […] The activity of the NF-κB transcription factor was measured with QUANTI-Blue, a detection agent […], following the supplier's recommendations.

[11] = tested on: HEK293 non-immune cell line; assay: Interferon production by cGAMP-activated HEK293 non-immune cells (STING-37), luciferase; conditions: inhibitor at 1 and 5 μM (FIG. 22C)
[12] = tested on: PBMCs of patients suffering from juvenile idiopathic arthritis; assay: Transcription of TNFα and IL-6 genes in PBMCs of juvenile idiopathic arthritis patients, RT-qPCR; assay type: cell-based, human; conditions: inhibitor at 1 μM for 16 h, RT-qPCR (FIG. 21)
T lymphocytes = assay: CD69 expression and viability of T lymphocytes activated with CD3/CD28 beads, flow cytometry; assay type: cell-based, human; conditions: purified T lymphocytes, 3 days (FIG. 19)
Description: as §2

[13] = tested on: monocytes of healthy donors; assay: Intracellular IL1β and TNFα in monocytes after inflammasome activation by uric acid crystals (MSU, gout model), flow cytometry; assay type: cell-based, human; conditions: activation of the inflammasome by uric acid crystals (mimicking gout)
Description: as §1, with “II” for “11”

B lymphocytes = assay: CD69 expression and viability of B lymphocytes activated with CpG-A (TLR9 ligand), flow cytometry; assay type: cell-based, human; conditions: purified B lymphocytes, 24 h (FIG. 20)
Description: as §2

human PBMCs = assay: Interferons in supernatants of R848-stimulated PBMCs, STING-37 reporter cell line; assay type: cell-based; parameters: dose or concentration left out as unconfirmed; conditions: inhibitor 1 h before R848, 24 h, STING-37 reporter (FIG. 17A)

C[C@@H](N)[C@H]1CC[C@H](C(=O)Nc2ccncc2)CC1 [Y27632]
production of interferons (IFN) induced by the cGAMP [1]: blocks the production of interferons (IFN) induced by the cGAMP according to a dosage effect starting from 1 μM
production of TNFα and of pro-inflammatory cytokines such as IL-6, IL-1β and the interferons induced by the TLR7/8 stimulation [2]: inhibits the production
secretion of the inflammatory cytokines (TNFα, IL-1β, IL6, MCP1 (CCL2)) and of the interferons (IFN) (activated immune cells): inhibits the secretion
production of interferons (IFN) induced by the cGAMP [3]: blocks the production of interferons (IFN) induced by the cGAMP according to a dosage effect starting from 1 μM
intracellular production of inflammatory cytokines (TNFα) [4]: inhibits, according to a dosage effect
production of inflammatory cytokines [5]: capable of inhibiting the production of inflammatory cytokines
viability of the PBMCs [6]: without affecting the viability
production of TNFα, IL-1β and IL-6 induced by R848 ([7]; inhibitor 1 h before R848 1 μg/ml, 6 h, flow cytometry (FIG. 18)): inhibits, according to a dosage effect
viability of the monocytes ([7]; inhibitor 1 h before R848, 6 h (FIG. 18)): without affecting the viability
level of TNFα in the culture medium [8]: re-establishes a “normal” level
viability of the THP1-Dual [9]: without affecting the viability
activation of the transcription factor of the NF-κB pathway induced by the stimulation of TLR7/8 [10]: inhibits
production of interferon induced by the STING ligand [11]: blocks in a limited manner
transcription of the genes encoding TNFα and IL-6 [12]: inhibits the transcription
viability of the T lymphocytes (T lymphocytes; CD3/CD28 beads): without affecting the viability
expression of the CD69 marker at the surface of the T lymphocytes (T lymphocytes; inhibitor at 1 and 5 μM, 1 h before CD3/CD28 beads): inhibits, according to a dosage effect
production of inflammatory cytokines [13]: capable of inhibiting the production of inflammatory cytokines
viability of the B lymphocytes (B lymphocytes; CpG-A): without affecting the viability
expression of the CD69 marker at the surface of the B lymphocytes (B lymphocytes; inhibitor at 1 μM, 1 h before CpG-A 1 μg/ml): inhibits, according to a dosage effect
production of IFN induced by the stimulation of TLR7/8 (human PBMCs): inhibits

Source: US20230124142A1, “NEW THERAPEUTIC TARGETS WITH AN ANTI-INFLAMMATORY AND ANTI-INTERFERON EFFECT” (UNIVERSITÉ PARIS CITÉ, priority 2020, published 2023)
